# Read-outs that look alike come from different tables or passages of the source.
# Experiments:
# HIV-1NL4-3 = test: HIV-1 infectivity assay in TZM-bl reporter cell line (LTR-luciferase, 48 h); type: cell-based; conditions: for inhibition at 1 µM: Human immunodeficiency virus 1, TZM-bl
# Summary of the method: (§1)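 Read-out is luciferase from an integrated HIV-1 LTR reporter in TZM-bl cells, 48 h after HIV-1NL4-3 infection in the presence of 1 μM compound. Scale set by DMSO-treated wild-type-infected cells (0%) and Nef-defective virus (100% Nef-dependent effect). Cell Titer Blue measures cytotoxicity without virus.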
# TZM-bl cell line = type: cell-based; conditions: 1 μM
# Summary of the method: as §1
# HIV-1 NefNL4-3 = HIV-1 NefNL4-3 (Human immunodeficiency virus type 1 group M subtype B, UniProt P03406, A33V/T15A/T51N/V11I); test: Surface plasmon resonance binding to recombinant full-length Nef (NL4-3); conditions: for T, minutes (residence time): 2-step induced fit, T = 1/koff2; for RU30/RUNef (extent of binding): response units at 30 μM relative to Nef immobilized on the SPR chip
# [1] = 1.0 μM, TZM-bl reporter cell line, Table 4, read-out: % Infectivity Inhibition
# [2] = 48 h, Table 1, TZM-bl cells, 1 μM, 48 h, 100% = Nef-defective HIV-1, read-out: HIV-1 Infectivity % Inhibition Norm. to Δ-Nef @ 1 μM
# [3] = KD, M, Table 4, SPR fit 2-step induced fit, KD = koff/kon × koff2/(koff2 + kon2)
# [4] = Nef NL4-3 Binding, SPR 2-state fitting KD, Table 1, 2-step induced-fit model
# [5] = read-out: Nef NL4-3 Binding, SPR 1:1 or 2-site fitting KD2, Table 1, 2-site fit, second component
# [6] = 48 h, Table 2, TZM-bl cells, 1 μM, 48 h, 100% = Nef-defective HIV-1, read-out: HIV-1 Infectivity % Inhibition Norm. to Δ-Nef @ 1 μM
# [7] = Table 2, 1:1 Langmuir fit where the KD2 cell says '1 to 1 fitting', else 2-site fit
SMILES,inhibition at 1 µM (HIV-1NL4-3; [1]) [%],inhibition at 1 µM (HIV-1NL4-3; [2]) [%],% Cell Viability (TZM-bl cell line; human) [%],Percent Viability @ 1 μM (TZM-bl cells) (TZM-bl cell line; human) [%],Kd (HIV-1 NefNL4-3) [nM],Kd (HIV-1 NefNL4-3; [3]) [nM],Kd (HIV-1 NefNL4-3; [4]) [nM],"T, minutes (residence time) (HIV-1 NefNL4-3; Table 4)",RU30/RUNef (extent of binding) (HIV-1 NefNL4-3),inhibition at 1 µM (HIV-1NL4-3; [6]) [%],"Nef NL4-3 Binding, SPR 1:1 or 2-site fitting KD1 (HIV-1 NefNL4-3; [7])",also measured
"O=C(c1nn(-c2nc3ccccc3[nH]2)c(O)c1CCc1ccc(F)cc1)N1CCCCC1 [Compound I-406, 1-(1H-1,3-benzodiazol-2-yl)-4-[2-(4-fluorophenyl)ethyl]-3-(piperidine-1-carbonyl)-1H-pyrazol-5-ol]",0,-4.4,100,109.7,549,2670,2670,2.85E + 00 minutes,7.13E- 03,–,–,"Kd (HIV-1 NefNL4-3; Nef NL4-3 Binding, SPR 1:1 or 2-site fitting KD2, Table 1, 2-site fit, second component): 1230 nM"
"Oc1c(CCc2ccc(F)cc2)c(C2CCNCC2)nn1-c1nc2ccc(Cl)cc2[nH]1 [Compound I-503, 1-(5-chloro-1H-1,3-benzodiazol-2-yl)-4-[2-(4-fluorophenyl)ethyl]-3-(piperidin-4-yl)-1H-pyrazol-5-ol]",0,-94.1,90.7,90.7,256,0.617,0.511,3.18E + 04 minutes,1.05E- 02,–,–,Kd (HIV-1 NefNL4-3; [5]): 3020 nM
"Oc1c(CC2CCNCC2)c(-c2ccc(C(F)(F)F)cc2)nn1-c1nc2ccccc2[nH]1 [Compound I-504, 1-(1H-1,3-benzodiazol-2-yl)-4-[(piperidin-4-yl)methyl]-3-[4-(trifluoromethyl)phenyl]-1H-pyrazol-5-ol]",–,-43.7,–,101.3,10600,–,–,–,–,–,–,–
"CS(=O)(=O)c1ccc(-c2nn(-c3nc4cc(Cl)ccc4[nH]3)c(O)c2CCC2CCNCC2)cc1 [Compound I-550, 1-(5-chloro-1H-1,3-benzodiazol-2-yl)-3-(4-methanesulfonylphenyl)-4-[2-(piperidin-4-yl)ethyl]-1H-pyrazol-5-ol]",0,-12.9,98.8,98.8,282,8.54,8.54,3.33E + 03 minutes,1.75E- 02,–,–,Kd (HIV-1 NefNL4-3; [5]): 6200 nM
"Oc1c(CCC2CCNCC2)c(-c2ccc(C(F)(F)F)cc2)nn1-c1nc2ccccc2[nH]1 [Compound I-552, 1-(1H-1,3-benzodiazol-2-yl)-4-[2-(piperidin-4-yl)ethyl]-3-[4-(trifluoromethyl)phenyl]-1H-pyrazol-5-ol]",50.5,50.5,91.4,91.4,554,1040,749,2.17E + 01 minutes,1.04E- 02,–,–,Kd (HIV-1 NefNL4-3; [5]): 16500 nM
"Oc1c(CCc2ccc(F)cc2)c(CC2CCNCC2)nn1-c1nc2ccccc2[nH]1 [Compound I-553, 1-(1H-1,3-benzodiazol-2-yl)-4-[2-(4-fluorophenyl)ethyl]-3-[(piperidin-4-yl)methyl]-1H-pyrazol-5-ol]",–,74.3,–,62.3,1230,–,–,–,–,–,–,–
"Oc1c(CCC2CCNCC2)c(C2CC2)nn1-c1nc2cc(Cl)ccc2[nH]1 [Compound I-554, 1-(5-chloro-1H-1,3-benzodiazol-2-yl)-3-cyclopropyl-4-[2-(piperidin-4-yl)ethyl]-1H-pyrazol-5-ol]",12.2,12.2,95.0,95.0,56.2,0.00315,0.00315,3.33E + 06 minutes,3.65E- 02,–,–,Kd (HIV-1 NefNL4-3; [5]): 2130 nM
"Oc1c(CCC2CCNCC2)c(-c2ccc(C(F)(F)F)cn2)nn1-c1nc2cc(Br)ccc2[nH]1 [Compound I-555, 1-(5-bromo-1H-1,3-benzodiazol-2-y1)-4-[2-(piperidin-4-yl)ethyl]-3-[5-(trifluoromethyl)pyridin-2-yl]-1H-pyrazol-5-ol]",–,–,–,–,–,–,–,–,–,–,–,"HIV-1 Infectivity % Inhibition Norm. to Δ-Nef @ 1 μM (HIV-1NL4-3; Table 1, TZM-bl cells, 1 μM, 48 h, 100% = Nef-defective HIV-1): −118.0%; Percent Viability @ 1 μM (TZM-bl cells) (TZM-bl cell line; Table 1, uninfected TZM-bl cells, Cell Titer Blue): 104.6%; Kd (HIV-1 NefNL4-3; Table 1, 1:1 Langmuir fit where the KD2 cell says '1 to 1 fitting', else 2-site fit, read-out: Nef NL4-3 Binding, SPR 1:1 or 2-site fitting KD1): 875 nM"
"Oc1c(CCc2ccc(F)cc2)c(CC2CCCNC2)nn1-c1nc2ccccc2[nH]1 (stereo not drawn) [Compound I-556, 1-(1H-1,3-benzodiazol-2-yl)-4-[2-(4-fluorophenyl)ethyl]-3-[(piperidin-3-yl)methyl]-1H-pyrazol-5-ol]",–,18.1,–,86.1,783,–,–,–,–,–,–,–
"Oc1c(CCc2ccc(F)cc2)c(-c2ccc(C(F)(F)F)cn2)nn1-c1cc(C(F)(F)F)n[nH]1 [Compound I-602, 4-[2-(4-fluorophenyl)ethyl]-5′-(trifluoromethyl)-3-[5-(trifluoromethyl)pyridin-2-yl]-2′H-[1,3′-bipyrazol]-5-ol]",–,–,–,97.2,–,–,–,–,–,73.8,No interaction,–
"CS(=O)(=O)c1ccc(-c2nn(-c3cc(C(F)(F)F)n[nH]3)c(O)c2CCc2ccc(F)cc2)cc1 [Compound I-603, 4-[2-(4-fluorophenyl)ethyl]-3-(4-methanesulfonylphenyl)-5′-(trifluoromethyl)-2′H-[1,3′-bipyrazol]-5-ol]",57.8,–,100,106.0,1830,35100,–,2.18E + 00 minutes,1.19E- 02,57.8,–,"Kd (HIV-1 NefNL4-3; Nef NL4-3 Binding, SPR 1:1 or 2-site fitting KD2, Table 2, 2-site fit, second component): 3600 nM; Kd (HIV-1 NefNL4-3; Nef NL4-3 Binding, SPR 2-state fitting KD, Table 2, 2-step induced-fit model): 58 nM"
"CS(=O)(=O)c1cccc(-c2nn(-c3cc(C(F)(F)F)n[nH]3)c(O)c2CCC2CCOCC2)c1 [Compound I-608, 3-(3-methanesulfonylphenyl)-4-[2-(oxan-4-yl)ethyl]-5′-(trifluoromethyl)-2′H-[1,3′-bipyrazol]-5-ol]",–,–,–,101.2,–,–,–,–,–,5.3,No interaction,–
"CS(=O)(=O)c1ccc(-c2nn(-c3cc(C(F)(F)F)n[nH]3)c(O)c2CCC2CCOCC2)cc1 [Compound I-611, 3-(4-methanesulfonylphenyl)-4-[2-(oxan-4-yl)ethyl]-5′-(trifluoromethyl)-2′H-[1,3′-bipyrazol]-5-ol]",–,–,–,99.6,–,–,–,–,–,65.7,No interaction,–
"Oc1c(CCc2ccncc2)c(-c2cccc(F)c2)nn1-c1cc(C(F)(F)F)n[nH]1 [Compound I-615, 3-(3-fluorophenyl)-4-[2-(pyridin-4-yl)ethyl]-5′-(trifluoromethyl)-2′H-[1,3′-bipyrazol]-5-ol]",–,–,–,98.9,–,–,–,–,–,47.9,No interaction,–
"O=C(O)c1ccc(CCc2c(-c3ccccc3)nn(-c3cc(C(F)(F)F)n[nH]3)c2O)cc1 [Compound I-618, 4-{2-[5-hydroxy-3-phenyl-5′-(trifluoromethyl)-2′H-[1,3′-bipyrazol]-4-yl]ethyl}benzoic acid]",–,–,–,93.8,–,–,–,–,–,0,No interaction,–
"Oc1c(CCc2ccc(F)cc2)c(-c2ccc(C(F)(F)F)cc2)nn1-c1cc(C2CC2)n[nH]1 [Compound I-619, 5′-cyclopropyl-4-[2-(4-fluorophenyl)ethyl]-3-[4-(trifluoromethyl)phenyl]-2′H-[1,3′-bipyrazol]-5-ol]",–,–,–,105.5,–,–,–,–,–,0,No interaction,–

# Source: patent US20220380341A1, “INHIBITORS OF HIV-1 NEF FOR THE TREATMENT OF HIV DISEASE” (priority 2018, published 2022)
